Structures are written as SMILES. Where a chain is given by its changes, count along the chain named.

Experiment [1] deals with human prostate cancer cell LNCaP-FGC. Briefly: Prostate specific antigen (PSA) production inhibition in prostate cancer cell. Particulars: 72 h, 1 μM compound, testosterone 1 ng/mL, three days, PSA in culture supernatant by ELISA, testosterone non-added group 100%, testosterone-added group 0%, read-out: PSA production Inhibitory rate (%) at 1 μM. In kind it is cell-based. On the procedure: A human prostate cancer cell LNCaP-FGC was inoculated on a 96-well plate at 5000 cells/100 μL/well and, on the next day, testosterone having the final concentration of 1 ng/mL and 1 μM of a compound were added. Three days after addition, the PSA concentration in the culture supernatant was measured by ELISA, and a PSA production inhibition rate was calculated, letting the rate of a testosterone non-added group to be 100%, and letting the rate of a testosterone-added group to be 0%.
(An ELISA detects its analyte on a solid surface through an enzyme-linked reagent.)

The subject of experiment [2] is mouse prostate. Nature of the experiment: Test of reduction in weight of mouse prostate. The class given is in vivo. To be noted: orally 100 mg/kg/day (bicalutamide) for 7 days, 8 week old male mouse; drug non-addition 0%, castration 100%. The source says:
A rate of reduction in a prostate weight is shown in Table 5, letting at drug non-addition to be 0%, and letting at castration to be 100%.

Experiment [3] deals with T1, wild-type androgen receptor (AR) (Homo sapiens, UniProt P10275).
T1 sequence (P10275 1-920): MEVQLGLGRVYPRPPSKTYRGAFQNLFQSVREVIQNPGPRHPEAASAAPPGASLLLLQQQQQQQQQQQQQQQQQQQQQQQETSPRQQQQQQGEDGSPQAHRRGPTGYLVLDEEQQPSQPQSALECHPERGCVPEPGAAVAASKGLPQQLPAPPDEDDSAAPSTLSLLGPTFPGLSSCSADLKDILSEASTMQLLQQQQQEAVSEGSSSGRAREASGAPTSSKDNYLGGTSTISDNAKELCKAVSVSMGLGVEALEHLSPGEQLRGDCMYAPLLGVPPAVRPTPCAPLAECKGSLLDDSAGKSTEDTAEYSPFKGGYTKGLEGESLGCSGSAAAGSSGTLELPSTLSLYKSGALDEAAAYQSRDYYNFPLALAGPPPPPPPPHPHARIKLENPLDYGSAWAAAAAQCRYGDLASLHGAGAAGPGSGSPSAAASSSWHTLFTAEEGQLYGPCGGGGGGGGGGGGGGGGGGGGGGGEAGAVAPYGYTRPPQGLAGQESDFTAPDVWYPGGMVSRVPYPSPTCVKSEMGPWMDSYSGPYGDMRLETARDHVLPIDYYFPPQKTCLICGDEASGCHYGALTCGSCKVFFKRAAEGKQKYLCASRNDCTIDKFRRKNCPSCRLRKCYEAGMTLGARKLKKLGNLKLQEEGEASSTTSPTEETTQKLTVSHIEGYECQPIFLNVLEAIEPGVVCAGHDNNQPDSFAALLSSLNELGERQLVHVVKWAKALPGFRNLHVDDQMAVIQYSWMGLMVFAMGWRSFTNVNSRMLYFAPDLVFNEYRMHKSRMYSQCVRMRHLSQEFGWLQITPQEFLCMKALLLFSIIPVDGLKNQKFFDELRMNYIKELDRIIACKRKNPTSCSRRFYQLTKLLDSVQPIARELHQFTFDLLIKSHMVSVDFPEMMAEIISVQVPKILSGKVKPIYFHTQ
Nature of the experiment: AR binding inhibitory test (wild type). To be noted: 1 μM compound, 3 nM miboleron, 4° C. for 3 hours, dextran/charcoal B/F separation; read-out: Inhibitory rate (%) at 1 μM, Wild type. On the procedure:
(§1) 3 nM miboleron and 1 μM of a compound was added to a solution containing a wild-type androgen receptor (AR) or an androgen receptor (AR) having a LNCaP type mutation, this was incubated at 4° C. for 3 hours, and B(Bound)/F(Free) separation was performed by a dextran/charcoal method. A label count of B was measured, and an inhibition rate of the compound was calculated.

The target of experiment [4] is T2, androgen receptor (AR) having a LNCaP type mutation (Homo sapiens, UniProt P10275, T878A).
T2 sequence (P10275 1-920 T878A): T1 sequence (P10275 1-920) with T878A
Briefly: AR binding inhibitory test (LNCaP type). Particulars: 1 μM compound, 3 nM miboleron, 4° C. for 3 hours, dextran/charcoal B/F separation; read-out: Inhibitory rate (%) at 1 μM, LNCaP type. On the procedure: as §1

The target of experiment [5] is T3, mutated AR (W741C) (Homo sapiens, UniProt P10275, W742C).
T3 construct: expressed in transfected cells; host or cells: Cos-7
T3 sequence (P10275 1-920 W742C): T1 sequence (P10275 1-920) with W742C
Nature of the experiment: AR transcription inhibition test (luciferase reporter in Cos-7). In kind it is cell-based. Particulars: 0.1 μM compound, DHT 0.04 μM, 24 hours, luciferase activity, relative to a control. On the procedure: 5,000,000 Cells of Cos-7 was inoculated on a flask, and cultured in a culturing solution (DMEM+10% Dextran Charcoal (DCC)-Fetal Bovine Serum (FBS)+2 mM glutamine) for 24 hours, and a vector DNA in which mutated AR (W741C) had been inserted, and a vector DNA in which a luciferase gene had been connected downstream of an androgen-responsive promoter were transfected by a liposome method. After two hours, the medium was exchanged, the cells were cultured for 3 hours, DHT (dihydrotestosterone) having the final concentration of 0.04 μM and an assessment compound having the final concentration of 0.1 μM were added, and the cells were cultured for 24 hours, and luciferase activity was measured to investigate AR transcription inhibition activity of the assessment compound.

Consider `CC(O)(CS(=O)(=O)c1ccc(F)cc1)C(=O)Nc1ccc(C#N)c(C(F)(F)F)c1` (stereo not shown) [bicalutamide, reference compound], for which the inhibition at 1 µM in experiment [1] turned out to be 58%. The “Reduction rate (%) of prostate weight” value in experiment [2] stood at 40%.

Regarding `CCCc1c(C#N)c(-c2ccc(C#N)cc2)c(C)n1Cc1cnc(Cl)c(CO)c1` [Compound 3, 1-{[6-Chloro-5-(hydroxymethyl)pyridin-3-yl]methyl}-4-(4-cyanophenyl)-5-methyl-2-propyl-1H-pyrrole-3-carbonitrile], the inhibition at 1 µM in experiment [3] came out at 96%; in experiment [4] it was 99%; in experiment [1], 99%. Besides, the “AR transcription Inhibitory rate (%) at 0.1 μM” value in experiment [5] is reported as 78%.

In the case of `Cc1c(C#N)c(-c2ccc(C#N)cc2)c(C)n1Cc1ccc(Cl)c(CO)c1` [Compound 26, 1-[4-Chloro-3-(hydroxymethyl)benzyl]-4-(4-cyanophenyl)-2,5-dimethyl-1H-pyrrole-3-carbonitrile], the inhibition at 1 µM was 98% in experiment [3], 93% in experiment [4] and 97% in experiment [1]. For the same molecule, in experiment [5], the “AR transcription Inhibitory rate (%) at 0.1 μM” value is on record as 53%.

Regarding `CCc1c(C#N)c(-c2ccc(C#N)cc2)c(C)n1Cc1cnc(Cl)c(CO)c1` [Compound 2, 1-{[6-Chloro-5-(hydroxymethyl)pyridin-3-yl]methyl}-4-(4-cyanophenyl)-2-ethyl-5-methyl-1H-pyrrole-3-carbonitrile], the results for the inhibition at 1 µM in experiment [3], in experiment [4] and in experiment [1] were 99%, 94% and 95%, respectively. The “AR transcription Inhibitory rate (%) at 0.1 μM” value in experiment [5] turned out to be 30%.

As to `Cc1c(-c2ccc(C#N)cc2)c(C#N)c(C2CC2)n1Cc1cnc(Cl)c(CO)c1` [Compound 5, 1-{[6-Chloro-5-(hydroxymethyl)pyridin-3-yl]methyl}-4-(4-cyanophenyl)-2-cyclopropyl-5-methyl-1H-pyrrole-3-carbonitrile], the figures for the inhibition at 1 µM in experiment [3], in experiment [4] and in experiment [1] were 98%, 96% and 99%, respectively. Moreover, the “AR transcription Inhibitory rate (%) at 0.1 μM” value in experiment [5] worked out at 78%.

For the molecule `Cc1cc(-c2ccc(C#N)cc2)c(C#N)n1Cc1cnc(Cl)c(CO)c1` [Example 52, 1-{[6-Chloro-5-(hydroxymethyl)pyridin-3-yl]methyl}-3-(4-cyanophenyl)-5-methyl-1H-pyrrole-2-carbonitrile], the inhibition at 1 µM in experiment [1] is 99%.

Turning to `CCc1cc(-c2ccc(C#N)cc2)c(C)n1Cc1cnc(Cl)c(CO)c1` [Example 47, 4-(1-{[6-Chloro-5-(hydroxymethyl)pyridin-3-yl]methyl}-5-ethyl-2-methyl-1H-pyrrol-3-yl)benzonitrile], the inhibition at 1 µM in experiment [3] was 50%; in experiment [4], 81%.

In the case of `Cc1cc(-c2ccc(C#N)cc2)c(C)n1Cc1cnc(Cl)c(CO)c1` [Example 46, 4-(1-{[6-Chloro-5-(hydroxymethyl)pyridin-3-yl]methyl}-2,5-dimethyl-1H-pyrrol-3-yl)benzonitrile], the inhibition at 1 µM came out at 86% in experiment [3], 89% in experiment [4] and 95% in experiment [1].

As for `Cc1c(-c2ccc(C#N)cc2)cc(C2CC2)n1Cc1cnc(Cl)c(CO)c1` [Example 48, 4-(1-{[6-Chloro-5-(hydroxymethyl)pyridin-3-yl]methyl}-5-cyclopropyl-2-methyl-1H-pyrrol-3-yl)benzonitrile], the inhibition at 1 µM in experiment [3] came to 30%; in experiment [4] it was 87%; in experiment [1], 98%.

`Cc1c(C#N)c(-c2cccc(C#N)c2)c(C)n1Cc1cnc(Cl)c(CO)c1` [Compound 7, 1-{[6-Chloro-5-(hydroxymethyl)pyridin-3-yl]methyl}-4-(3-cyanophenyl)-2,5-dimethyl-1H-pyrrole-3-carbonitrile]: the inhibition at 1 µM in experiment [1] is 94%.
